target: T1, Polθ polymerase domain (amino acids 1792-2590) (Homo sapiens, UniProt O75417); assay: Picogreen assay of Polθ polymerase activity; assay type: biochemical; conditions: 12-point concentration response, 90 minutes incubation at room temperature, 8 nM Polθ in 2×polymerase mixture, read-out: PolQ IC50
T1 construct: 10×Histidine-SUMO (N, cleaved yes); made in house; host or cells: E. coli
T1 sequence (O75417 1792-2590): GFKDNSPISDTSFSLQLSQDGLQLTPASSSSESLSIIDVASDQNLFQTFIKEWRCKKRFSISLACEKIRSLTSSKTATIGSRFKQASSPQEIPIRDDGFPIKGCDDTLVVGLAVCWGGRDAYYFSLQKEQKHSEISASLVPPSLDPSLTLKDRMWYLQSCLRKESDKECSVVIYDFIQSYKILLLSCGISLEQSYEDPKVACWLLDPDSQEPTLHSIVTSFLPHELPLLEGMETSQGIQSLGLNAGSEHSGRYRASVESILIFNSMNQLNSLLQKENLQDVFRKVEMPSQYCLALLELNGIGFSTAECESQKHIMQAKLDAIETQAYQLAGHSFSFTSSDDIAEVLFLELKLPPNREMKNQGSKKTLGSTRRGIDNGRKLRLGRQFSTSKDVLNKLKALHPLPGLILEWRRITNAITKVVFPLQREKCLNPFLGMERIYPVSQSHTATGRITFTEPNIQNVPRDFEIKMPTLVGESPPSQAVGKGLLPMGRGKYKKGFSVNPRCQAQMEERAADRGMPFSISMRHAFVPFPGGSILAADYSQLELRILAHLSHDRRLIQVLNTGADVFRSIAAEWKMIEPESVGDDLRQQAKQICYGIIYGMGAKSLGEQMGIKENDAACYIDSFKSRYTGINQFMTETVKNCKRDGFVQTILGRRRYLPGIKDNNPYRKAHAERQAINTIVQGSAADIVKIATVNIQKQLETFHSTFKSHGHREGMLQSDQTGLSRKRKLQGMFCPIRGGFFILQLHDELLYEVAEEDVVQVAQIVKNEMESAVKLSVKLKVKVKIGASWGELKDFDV
Description: The DNA sequence of the polQ gene (Genebank ID #NM 199420.4) was chemically synthesized. The DNA sequence encoding the polymerase domain (amino acids 1792-2590) was subcloned into an E. coli expression plasmid, resulting in the fusion of 10×Histidine-SUMO tag at the N terminus of the polymerase domain.
The protein was expressed in E. coli. and purified using a 2-step IMAC (immobilized metal chelate affinity chromatography) procedure. Briefly stated, the overexpressed E. coli lysate was subjected to Ni-NTA purification, and an N-terminal tag was digested by a SUMO protease. Then, the excised fragment of 10×Histidine-SUMO tag was removed using Ni-NTA beads. The resulting protein was used for the Picogreen assay, as described below.
The methods of DNA complex preparation were slightly modified from the protocol previously reported (Zatreanu et al., 2021, Nature Communications, 12:3636). Briefly stated, polθ substrate was prepared by mixing Oligo1 (5′-GCG GCT GTC ATA AG-3′) and Oligo2 (5′-GCTACATTGACAATGGCATCAAATCTCAGATTGCGTCTTATGACAGCCGCG-3′) in an annealing buffer (20 mM Tris-Cl, pH 7.5, 50 mM NaCl) to the final concentration of 22 uM and 20 uM, respectively. The Polθ product was prepared by mixing Oligo3 (5′-CGCGGCTGTCATAAGACGCAATCTGAGATTTGATGCCATTGTCAATGTAGC-3′) and Oligo2 (5′-GCTACATTGACAATGGCATCAAATCTCAGATTGCGTCTTATGACAGCCGCG-3′) to the final concentration of 20 uM. The polθ product was used for the top signal control in the Picogreen assay. Both substrate and product were heated to 95° C. […] and cooled slowly to room temperature.
To evaluate the ability of test compounds to inhibit the activity of polθ in vitro, a Picogreen assay was performed to measure polθ IC50 (nM).
The reactions were performed at room temperature in an assay buffer (25 mM Tris-HCl, pH 7.5, 12.5 mM NaCl, 0.5 mM MgCl2, 5% (v/v) glycerol, 0.01% (v/v) Triton X-100, 0.01% (w/v) Bovine serum albumin, 1 mM DTT). Thirty microliters of 2×polymerase mixture (8 nM Polθ enzyme in an assay buffer) were distributed to 96 well plates, test compounds were prepared by dilution in 100% DMSO to obtain the correct dose range for a 12-point concentration response and 1 μl was dispensed into each well, and then 30 microliters of 2×substrate mix (100 nM DNA and 40 uM dNTPs in an assay buffer) was added. After 90 minutes of incubation, the reaction was stopped and DNA was stained by adding 40 microliters of Picogreen solution (1:80 dilution of Picogreen, Invitrogen, Cat #P7581, 25 mM Tris-HCl, pH 7.5, 10 mM EDTA, pH 7.5).
The fluorescence intensity was measured at excitation/emission=485 nm/520 nm using an Ensight plate reader (Perkin Elmer). The data was analyzed by GraphPad Prism software (Version 8.4.3) to calculate IC50.

Compound	IC50 [nM]
Cc1cc(C(F)(F)F)cc(N2[C@@H](C(=O)N(CC#Cc3cnc(N)cn3)c3ccc(F)c(C)c3F)CCS2(=O)=O)n1 [compound 31]	> 101
Cc1ccc(F)c(N(CC#Cc2cnc(N3CCOCC3)cn2)C(=O)[C@H]2CCS(=O)(=O)N2c2cc(C(F)(F)F)cc(C)n2)c1 [compound 41]	> 101
Cc1cc(C(F)(F)F)cc(N2[C@H](C(=O)N(CC#Cc3cnc(N4CCOCC4)c(C(F)(F)F)n3)c3ccc(F)c(C)c3)CCS2(=O)=O)n1 [compound 46]	1 to 50
Cc1cc(C(F)(F)F)cc(N2[C@H](C(=O)N(CC#Cc3cnc(N4C[C@@H](C)O[C@@H](C)C4)cn3)c3ccc(F)c(C)c3)CCS2(=O)=O)n1 [compound 47]	1 to 50
Cc1cc(C(F)(F)F)cc(N2[C@H](C(=O)N(CC#Cc3cnc(N4CC5CCC(C4)O5)cn3)c3ccc(F)c(C)c3)CCS2(=O)=O)n1 [compound 48]	1 to 50
Cc1cc(C(F)(F)F)cc(N2[C@H](C(=O)N(CC#Cc3cnc(N4C5CCC4COC5)cn3)c3ccc(F)c(C)c3)CCS2(=O)=O)n1 [compound 49]	1 to 50
CCN1CCN(c2cnc(C#CCN(C(=O)[C@@H]3CCS(=O)(=O)N3c3cc(C(F)(F)F)cc(C)n3)c3ccc(F)c(C)c3)cn2)CC1 [compound 50]	1 to 50
CCN1CCN(c2cnc(C#CCN(C(=O)[C@@H]3CCS(=O)(=O)N3c3cc(C(F)(F)F)cc(C)n3)c3cc(C)ccc3F)cn2)CC1 [compound 51]	1 to 50
Cc1cc(C(F)(F)F)cc(N2[C@H](C(=O)N(CC#Cc3cnc(N4C[C@H](C)N[C@@H](C)C4)cn3)c3ccc(F)c(C)c3)CCS2(=O)=O)n1 [compound 52]	1 to 50
Cc1cc(C(F)(F)F)cc(N2[C@H](C(=O)N(CC#Cc3cnc(N4C[C@H](C)N(C(C)C)[C@@H](C)C4)cn3)c3ccc(F)c(C)c3)CCS2(=O)=O)n1 [compound 53]	1 to 50
Cc1cc(C(F)(F)F)cc(N2[C@H](C(=O)N(CC#Cc3cnc(N4[C@H](C)CN(C(C)C)C[C@H]4C)cn3)c3ccc(F)c(C)c3)CCS2(=O)=O)n1 [compound 55]	1 to 50
Cc1cc(C(F)(F)F)cc(N2[C@H](C(=O)N(CC#Cc3cnc(-c4c[nH]nn4)cn3)c3ccc(F)c(C)c3)CCS2(=O)=O)n1 [compound 56]	1 to 50
Cc1cc(C(F)(F)F)cc(N2[C@H](C(=O)N(CC#Cc3cnc(-n4ccnn4)cn3)c3ccc(F)c(C)c3)CCS2(=O)=O)n1 [compound 57]	1 to 50
Cc1cc(C(F)(F)F)cc(N2[C@H](C(=O)N(CC#Cc3cnc(-c4ncon4)cn3)c3ccc(F)c(C)c3)CCS2(=O)=O)n1 [compound 58]	> 101
Cc1cc(C(F)(F)F)cc(N2[C@H](C(=O)N(CC#Cc3cnc(C#N)cn3)c3ccc(F)c(C)c3)CCS2(=O)=O)n1 [compound 59]	> 101
Cc1cc(C(F)(F)F)cc(N2[C@H](C(=O)N(CC#Cc3cnc(C(=O)O)cn3)c3ccc(F)c(C)c3)CCS2(=O)=O)n1 [compound 60]	1 to 50
Cc1cc(C(F)(F)F)cc(N2[C@H](C(=O)N(CC#Cc3cnc(C(N)=O)cn3)c3ccc(F)c(C)c3)CCS2(=O)=O)n1 [compound 61]	> 101
Cc1cc(C(F)(F)F)cc(N2[C@H](C(=O)N(CC#Cc3cnc(C(N)=O)c(C)n3)c3ccc(F)c(C)c3)CCS2(=O)=O)n1 [compound 62]	1 to 50
Cc1cc(C(F)(F)F)cc(N2[C@H](C(=O)N(CC#Cc3cncc(C(N)=O)n3)c3ccc(F)c(C)c3)CCS2(=O)=O)n1 [compound 63]	1 to 50
Cc1cc(C(F)(F)F)cc(N2[C@H](C(=O)N(CC#Cc3nccnc3C(N)=O)c3ccc(F)c(C)c3)CCS2(=O)=O)n1 [compound 64]	1 to 50

Continued, values first:

IC50 [nM]	Compound
1 to 50	CCN(CC)c1ccc(C#CCN(C(=O)[C@@H]2CCS(=O)(=O)N2c2cc(C(F)(F)F)cc(C)n2)c2ccc(F)c(C)c2)nn1 [compound 25]
1 to 50	Cc1cc(C(F)(F)F)cc(N2[C@H](C(=O)N(CC#Cc3ccc(=O)[nH]n3)c3ccc(F)c(C)c3)CCS2(=O)=O)n1 [compound 26]
1 to 50	COc1ccc(C#CCN(C(=O)[C@@H]2CCS(=O)(=O)N2c2cc(C(F)(F)F)cc(C)n2)c2ccc(F)c(C)c2)nn1 [compound 27]
1 to 50	Cc1cc(C(F)(F)F)cc(N2[C@H](C(=O)N(CC#Cc3ccc(OC(F)F)nn3)c3ccc(F)c(C)c3)CCS2(=O)=O)n1 [compound 28]
1 to 50	Cc1cc(C(F)(F)F)cc(N2[C@H](C(=O)N(CC#Cc3ccc(C(N)=O)nn3)c3ccc(F)c(C)c3)CCS2(=O)=O)n1 [compound 29]
1 to 50	Cc1cc(C(F)(F)F)cc(N2[C@H](C(=O)N(CC#Cc3cnc(N)cn3)c3ccc(F)c(C)c3)CCS2(=O)=O)n1 [compound 30]
1 to 50	Cc1ccc(F)c(N(CC#Cc2cnc(N)cn2)C(=O)[C@@H]2CCS(=O)(=O)N2c2cc(C(F)(F)F)cc(C)n2)c1 [compound 33]
1 to 50	CC(=O)Nc1cnc(C#CCN(C(=O)[C@@H]2CCS(=O)(=O)N2c2cc(C(F)(F)F)cc(C)n2)c2ccc(F)c(C)c2)cn1 [compound 34]
1 to 50	Cc1cc(C(F)(F)F)cc(N2[C@H](C(=O)N(CC#Cc3cnc(NC(N)=O)cn3)c3ccc(F)c(C)c3)CCS2(=O)=O)n1 [compound 35]
1 to 50	Cc1cc(C(F)(F)F)cc(N2[C@H](C(=O)N(CC#Cc3cnc(NC(C)C)cn3)c3ccc(F)c(C)c3)CCS2(=O)=O)n1 [compound 36]
1 to 50	Cc1ccc(F)c(N(CC#Cc2cnc(NC(C)C)cn2)C(=O)[C@@H]2CCS(=O)(=O)N2c2cc(C(F)(F)F)cc(C)n2)c1 [compound 37]
1 to 50	Cc1cc(C(F)(F)F)cc(N2[C@H](C(=O)N(CC#Cc3cnc(N4CC5(COC5)C4)cn3)c3ccc(F)c(C)c3)CCS2(=O)=O)n1 [compound 38]
1 to 50	Cc1cc(C(F)(F)F)cc(N2[C@H](C(=O)N(CC#Cc3cnc(N4CCOCC4)cn3)c3ccc(F)c(C)c3)CCS2(=O)=O)n1 [compound 39]
1 to 50	Cc1ccc(F)c(N(CC#Cc2cnc(N3CCOCC3)cn2)C(=O)[C@@H]2CCS(=O)(=O)N2c2cc(C(F)(F)F)cc(C)n2)c1 [compound 40]
1 to 50	Cc1cc(C(F)(F)F)cc(N2[C@H](C(=O)N(CC#Cc3cncc(N4CCOCC4)n3)c3ccc(F)c(C)c3)CCS2(=O)=O)n1 [compound 42]
1 to 50	Cc1cc(C(F)(F)F)cc(N2[C@H](C(=O)N(CC#Cc3ncc(N4CCOCC4)nc3N)c3ccc(F)c(C)c3)CCS2(=O)=O)n1 [compound 43]
1 to 50	Cc1cc(C(F)(F)F)cc(N2[C@H](C(=O)N(CC#Cc3cnc(N4CCOCC4)c(N)n3)c3ccc(F)c(C)c3)CCS2(=O)=O)n1 [compound 44]
1 to 50	Cc1cc(C(F)(F)F)cc(N2[C@H](C(=O)N(CC#Cc3cnc(N4CCOCC4)c(C)n3)c3ccc(F)c(C)c3)CCS2(=O)=O)n1 [compound 45]

Reference: patent US20260297083A1, “SUBSTITUTED ACETYLENE COMPOUND DERIVATIVES AND THEIR PHARMACEUTICAL USE” (AVELOS THERAPEUTICS INC., priority 2023, published 2026)
